# Data as given in patent publication US7994209B2, “3-phenoxymethylpyrrolidine compounds” (Theravance, Inc., priority 2009, dated 2011).
# Marks after values point to notes of the source that are not given here.
# Tests used:
# SERT and NET = details: cited from earlier work
# hNET [1] = target: T1, hNET (Homo sapiens, UniProt P23975); test: hNET membrane radioligand binding assay (3H-nisoxetine), Assay 1
# hNET [2] = target: T1, hNET; test: fluorescence-based norepinephrine reuptake inhibition assay (Tsuruda et al. 2010; data indicated by an asterisk); type: cell-based; design: expressed in transfected cells; host or cells: HEK-293; details: norepinephrine reuptake inhibition, fluorescence-based assay (values with asterisk); for IC50: read-out: NET pIC50 (converted)
# hSERT [3] = target: T2, hSERT (Homo sapiens, UniProt P31645); test: hSERT membrane radioligand binding assay (3H-citalopram), Assay 1; details: hSERT HEK-293 membranes, 1.0 nM 3H-citalopram, values given as lower bounds; for Ki: SERT pKi
# hSERT [4] = target: T2, hSERT; test: fluorescence-based serotonin reuptake inhibition assay (Tsuruda et al. 2010; data indicated by an asterisk); type: cell-based; design: expressed in transfected cells; host or cells: HEK-293; details: fluorescence-based assay (values with asterisk); for IC50: read-out: SERT pIC50 (converted)
# T2 sequence (P31645 whole entry): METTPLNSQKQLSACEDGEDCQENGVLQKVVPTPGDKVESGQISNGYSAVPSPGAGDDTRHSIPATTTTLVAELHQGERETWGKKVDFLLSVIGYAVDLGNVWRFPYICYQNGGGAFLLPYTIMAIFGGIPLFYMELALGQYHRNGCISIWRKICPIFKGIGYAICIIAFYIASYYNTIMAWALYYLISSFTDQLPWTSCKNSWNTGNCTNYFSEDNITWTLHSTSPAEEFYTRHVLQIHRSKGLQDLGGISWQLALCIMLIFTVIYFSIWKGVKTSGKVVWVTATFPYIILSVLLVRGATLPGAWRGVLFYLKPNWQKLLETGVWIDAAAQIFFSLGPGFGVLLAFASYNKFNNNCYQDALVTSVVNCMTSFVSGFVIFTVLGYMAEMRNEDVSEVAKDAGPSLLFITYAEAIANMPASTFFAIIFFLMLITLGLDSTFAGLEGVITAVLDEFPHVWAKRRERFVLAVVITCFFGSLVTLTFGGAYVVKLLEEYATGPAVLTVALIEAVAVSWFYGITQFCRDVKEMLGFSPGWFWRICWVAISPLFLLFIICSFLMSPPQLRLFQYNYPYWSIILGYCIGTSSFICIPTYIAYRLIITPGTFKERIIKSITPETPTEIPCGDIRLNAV
# T1 sequence (P23975 whole entry): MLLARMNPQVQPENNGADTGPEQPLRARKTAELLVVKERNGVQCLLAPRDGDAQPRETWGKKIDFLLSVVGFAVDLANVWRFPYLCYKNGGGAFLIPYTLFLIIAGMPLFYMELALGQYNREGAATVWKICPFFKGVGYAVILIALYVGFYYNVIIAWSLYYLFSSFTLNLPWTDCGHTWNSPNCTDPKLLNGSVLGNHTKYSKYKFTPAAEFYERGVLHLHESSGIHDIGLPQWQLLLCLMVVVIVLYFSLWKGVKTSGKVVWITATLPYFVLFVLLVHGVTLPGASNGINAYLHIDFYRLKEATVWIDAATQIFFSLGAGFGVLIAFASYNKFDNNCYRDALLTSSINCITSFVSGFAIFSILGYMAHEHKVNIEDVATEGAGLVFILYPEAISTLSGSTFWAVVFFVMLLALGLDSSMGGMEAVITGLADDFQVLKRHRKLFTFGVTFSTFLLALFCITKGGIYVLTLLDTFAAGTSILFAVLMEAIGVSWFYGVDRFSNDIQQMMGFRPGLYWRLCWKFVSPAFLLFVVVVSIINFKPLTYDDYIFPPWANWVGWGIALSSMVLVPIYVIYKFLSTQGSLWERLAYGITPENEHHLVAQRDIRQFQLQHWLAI
Molecule,Ki (hNET [1]),IC50 (hNET [2]),Ki (hSERT [3]),IC50 (hSERT [4]),further results
CNCC[C@@H](Oc1ccccc1C)c1ccccc1 [Atomoxetine],,,,,NET selective (SERT and NET; NET selectivity): 10 fold
"Cc1ccc(F)c(O[C@H](C2CC2)[C@H]2CCNC2)c1Cl [Example 16-63, (S)-3-[(R)-(2-Chloro-6-fluoro-3-methylphenoxy)cyclopropylmethyl]pyrrolidine]",≤ 10 nM,≤ 10 nM,≤ 10 nM,≤ 100 nM,
"COc1ccc(F)c(O[C@@H](C2CC2)[C@H]2CCNC2)c1Cl [Example 16-64, (S)-3-[(S)-(2-Chloro-6-fluoro-3-methoxyphenoxy)cyclopropylmethyl]pyrrolidine]",≤ 10 nM,≤ 10 nM,≤ 10 nM,≤ 10 nM,
"Fc1ccc(Cl)c(F)c1O[C@@H](C1CC1)[C@H]1CCNC1 [Example 16-66, (S)-3-[(S)-(3-Chloro-2,6-difluorophenoxy)cyclopropylmethyl]pyrrolidine]",≤ 10 nM,≤ 10 nM,≤ 10 nM,≤ 100 nM,
"Fc1ccc(Cl)c(F)c1O[C@H](C1CC1)[C@H]1CCNC1 [Example 16-67, (S)-3-[(R)-(3-Chloro-2,6-difluorophenoxy)cyclopropylmethyl]pyrrolidine]",≤ 10 nM,≤ 10 nM,≤ 10 nM,≤ 100 nM,
"Cc1cc(O[C@@H](C2CC2)[C@H]2CCNC2)c(Cl)cc1Cl [Example 16-72, (S)-3-[(S)cyclopropyl-(2,4-dichloro-5-methylphenoxy)methyl]pyrrolidine]",≤ 100 nM,≤ 100 nM,≤ 10 nM,≤ 10 nM,
"COc1cc(Cl)c(F)cc1O[C@@H](C1CC1)[C@H]1CCNC1 [Example 16-74, (S)-3-[(S)-(4-Chloro-5-fluoro-2-methoxyphenoxy)cyclopropylmethyl]pyrrolidine]",≤ 10 nM,≤ 10 nM,≤ 10 nM,≤ 10 nM,
"Fc1cc(Cl)cc(F)c1O[C@H](C1CC1)[C@H]1CCNC1 [Example 16-80, (S)-3-[(R)-(4-Chloro-2,6-difluorophenoxy)cyclopropylmethyl]pyrrolidine]",≤ 10 nM,≤ 10 nM,≤ 10 nM,≤ 10 nM,
"Clc1cccc(O[C@@H](C2CC2)[C@H]2CCNC2)c1 [Example 16-84, (S)-3-[(S)-(3-Chlorophenoxy)cyclopropylmethyl]pyrrolidine]",≤ 10 nM,≤ 10 nM,≤ 10 nM,≤ 100 nM,
"Clc1cccc(O[C@H](C2CC2)[C@H]2CCNC2)c1 [Example 16-85, (S)-3-[(R)-(3-Chlorophenoxy)cyclopropylmethyl]pyrrolidine]",≤ 10 nM,≤ 10 nM,≤ 10 nM,≤ 100 nM,
"Clc1ccc(O[C@@H](C2CC2)[C@H]2CCNC2)cc1Cl [Example 16-87, (S)-3-[(S)cyclopropyl-(3,4-dichlorophenoxy)methyl]pyrrolidine]",≤ 10 nM,≤ 10 nM,≤ 10 nM,≤ 10 nM,
"Clc1ccc(O[C@H](C2CC2)[C@H]2CCNC2)cc1Cl [Example 16-88, (S)-3-[(R)cyclopropyl-(3,4-dichlorophenoxy)methyl]pyrrolidine]",≤ 10 nM,≤ 10 nM,≤ 10 nM,≤ 10 nM,
"Cc1cc(O[C@@H](C2CC2)[C@H]2CCNC2)ccc1Cl [Example 16-94, (S)-3-[(S)-(4-Chloro-3-methylphenoxy)cyclopropylmethyl]pyrrolidine]",≤ 10 nM,≤ 10 nM,≤ 10 nM,≤ 10 nM,
"Cc1cc(O[C@H](C2CC2)[C@H]2CCNC2)ccc1Cl [Example 16-95, (S)-3-[(R)-(4-Chloro-3-methylphenoxy)cyclopropylmethyl]pyrrolidine]",≤ 100 nM,≤ 100 nM,≤ 10 nM,≤ 10 nM,
"c1ccc2c(O[C@@H](C3CC3)[C@H]3CCNC3)cccc2c1 [Example 22, (S)-3-[(S)-Cyclopropyl(naphthalen-1-yloxy)methyl]pyrrolidine]",≤ 10 nM,≤ 10 nM,≤ 10 nM,≤ 10 nM,
CNCC[C@H](Oc1cccc2ccccc12)c1cccs1 [duloxetine],,,,,selectivity (measured as pKi) for SERT over NET (SERT and NET): 10 fold; affinity for SERT relative to NET (SERT and NET; Vaishnavi et al. (2004)): higher affinity for SERT relative to NET
CCN(CC)C(=O)C1(c2ccccc2)CC1CN (stereo not shown) [milnacipran],,,,,selectivity (measured as pKi) for SERT over NET (SERT and NET): 2.5 fold
(S)-3-[(R)-Cyclopropyl-(2-methyl-3-vinylphenoxy)methyl]pyrrolidine [Example 23-1],,,,,"NET pKi (hNET [1]; hNET HEK-293 membranes, 1.0 nM 3H-nisoxetine, values given as lower bounds): ≧8.0; NET pIC50 (hNET [2]): ≧8.0*; SERT pKi (hSERT [3]): ≧8.0; SERT pIC50 (hSERT [4]): ≧8.0*"
